# Assay results from patent US20220306695A1, “COMPSTATIN ANALOGUES AND THEIR MEDICAL USES” (priority 2019, published 2022).
# Starred links: 1 amine or outer side, 2 acyl side, 3 side chain; linkers in the order of their positions; H or OH if unused. Positions of bridges follow the written chain, without caps; N, C: chain ends. Non-standard residues stand in square brackets, D forms with d. Residues, ends and D or L forms follow the SMILES beside them. Groups on a side chain read outwards from the residue. *: point of attachment. Trp(1-Me) = Cn1cc(C[C@H](N)C(=O)O)c2ccccc21; Abu(4-yl) = O=C([C@H](CC[*:3])N[*:1])[*:2]; C18 diacid = O=C(O)CCCCCCCCCCCCCCCCC(=O)*; C16 diacid = O=C(O)CCCCCCCCCCCCCCC(=O)*; γGlu = O=C(O)[C@H](CCC(=O)[*:2])N[*:1]; AEEA = NCCOCCOCC(=O)O; Sar = CNCC(=O)O
# Tests used:
# [1] = Solubility test at 10 mg/mL (visual inspection and light scattering); format: physicochemical
# [2] = test system: classical complement pathway; assay: In vitro haemolysis assay (inhibition of classical complement pathway); format: cell-based, human; details: Table 3; human serum, sensitized sheep red blood cells; read-out: IC50[nM], in vitro analysis of inhibition of hemolysis
# In short: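 Serially diluted compound (9 points) was preincubated 15 min at room temperature with diluted human serum, titrated per batch to give 70-90% maximal haemolysis, in Tris/casein buffer pH 7.4 with Mg2+/Ca2+. Antibody-sensitized sheep erythrocytes were then added for 30 min at 37° C, and the reaction was stopped with EDTA. Haemolysis was read at A405, with IC50 from 4PL fit.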
# in vivo = assay: in vivo; set-up: species or system Cynomolgus monkeys (Macaca fascicularis); details: male, cynomolgus monkey, sc, 1840 nmol/kg, t½
# Protocol: Healthy male Cynomolgus monkeys (Macaca fascicularis) received single subcutaneous administrations of each test substance. Compounds were formulated in 20 mM phosphate adjusted with NaOH to pH 7.5 and mannitol for isotonicity and dosed at 1840 nmol/kg. Blood was collected from a femoral vein from each animal at the following times: Pre-dose, 1, 2, 4, 8, 24, 48, 72, 96 and 120 h (10 sampling times). Blood was collected into serum separation tubes and allowed to clot at room temperature. The tubes were centrifuged and resulting serum was aliquoted and snap-frozen over dry-ice and stored at nominally −80° C. until analysis. All NHP studies were performed in accordance with animal welfare laws and regulations, including approval of the study by a local ethical review process.
# In order to assess pharmacokinetic half-life (t %/), serum samples isolated from non-human primates at specific time points after dosing were analysed for total drug compound after sample preparation by solid phase extraction (SPE) and liquid chromatography mass spectrometry (LC-MS/MS) using analogue internal standard. Single measurement of serum concentrations were used for calculation of the pharmacokinetic parameters using the non-compartmental approach in Phoenix WinNonlin 6.3. Plasma terminal elimination half-life (ty) was determined as In(2)/λz where λz is the magnitude of the slope of the log linear regression of the log concentration versus time profile during the terminal phase.
SMILES,"Solubility, Condition 1 Acetate pH 4 ([1]; 10 mg/mL compound in 100 mM acetate pH 4)","Solubility, Condition 2 Acetate pH 5 ([1]; 10 mg/mL compound in 100 mM acetate pH 5)","Solubility, Condition 3 Phosphate pH 6 ([1]; 10 mg/mL compound in 100 mM phosphate pH 6)","Solubility, Condition 4 Phosphate pH 7 ([1]; 10 mg/mL compound in 100 mM phosphate pH 7)","Solubility, Condition 5 Phosphate pH 7.5 ([1]; 10 mg/mL compound in 100 mM phosphate pH 7.5)",IC50 [2] [nM],half-life (in vivo) [h]
CC[C@H](C)[C@@H]1NC(=O)[C@@H](NC(=O)[C@H](Cc2ccc(O)cc2)NC(=O)[C@H](CCC(=O)O)NC(=O)[C@H](CO)NC(=O)CNC(=O)[C@H](CCC(=O)O)NC(=O)CCCCCCCCCCCCCCC(=O)O)CSSC[C@@H](C(=O)N(C)CC(=O)N[C@@H](CCC(=O)O)C(N)=O)NC(=O)[C@H](CCCNC(=N)N)NC(=O)[C@H](Cc2c[nH]cn2)NC(=O)[C@H](CCC(=O)O)NC(=O)CNC(=O)[C@H](Cc2c[nH]c3ccccc23)NC(=O)[C@H](CC(=O)O)NC(=O)[C@H](CCC(N)=O)NC(=O)[C@H](Cc2cn(C)c3ccccc23)NC1=O [Compound 107] ({C16 diacid}-EGSEYCI[Trp(1-Me)]QDWGEHRC[Sar]E-NH2; disulfide 6-16),"− (denotes lack of solubility at the given condition, as UV absorbance at 340 nm exceeds 0.1 AU and/or it is visibly turbid or contains particles.)","− (denotes lack of solubility at the given condition, as UV absorbance at 340 nm exceeds 0.1 AU and/or it is visibly turbid or contains particles.)","+ (denotes solubility at the given condition, as determined by UV absorbance being less than 0.1 AU at 340 nm and the sample being clear when manually inspected.)","+ (denotes solubility at the given condition, as determined by UV absorbance being less than 0.1 AU at 340 nm and the sample being clear when manually inspected.)","+ (denotes solubility at the given condition, as determined by UV absorbance being less than 0.1 AU at 340 nm and the sample being clear when manually inspected.)",< 100,20.1
CC[C@H](C)[C@@H]1NC(=O)[C@@H](NC(=O)[C@H](Cc2ccccc2)NC(=O)[C@H](CCC(=O)O)NC(=O)[C@H](CO)NC(C)=O)CSSC[C@@H](C(=O)N(C)CC(=O)N[C@@H](CCC(=O)O)C(=O)NCC(=O)N[C@@H](CCC(=O)O)C(=O)N[C@@H](CO)C(=O)N[C@@H](CCC(=O)O)C(=O)N[C@@H](CO)C(=O)N[C@@H](CCCCNC(=O)CC[C@H](NC(=O)CNC(=O)CC[C@H](NC(=O)CCCCCCCCCCCCCCCCC(=O)O)C(=O)O)C(=O)O)C(N)=O)NC(=O)[C@H](CCCNC(=N)N)NC(=O)[C@H](Cc2c[nH]cn2)NC(=O)[C@H](CCC(=O)O)NC(=O)CNC(=O)[C@H](Cc2c[nH]c3ccccc23)NC(=O)[C@H](CC(=O)O)NC(=O)[C@H](CCC(N)=O)NC(=O)[C@H](Cc2cn(C)c3ccccc23)NC1=O [Compound 139] (Ac-SEFCI[Trp(1-Me)]QDWGEHRC[Sar]EGESESK([γGlu-Gly-γGlu-C18 diacid])-NH2; disulfide 4-14),,,,,,< 100,82
CC[C@H](C)[C@@H]1NC(=O)[C@@H](NC(=O)[C@H](Cc2ccccc2)NC(=O)[C@H](CCC(=O)O)NC(=O)[C@H](CO)NC(C)=O)CSSC[C@@H](C(=O)N(C)CC(=O)N[C@@H](CCC(=O)O)C(=O)NCC(=O)N[C@@H](CCC(=O)O)C(=O)NCCOCCOCC(=O)NCCOCCOCC(=O)N[C@@H](CCCCNC(=O)CC[C@H](NC(=O)CNC(=O)CC[C@H](NC(=O)CCCCCCCCCCCCCCCCC(=O)O)C(=O)O)C(=O)O)C(N)=O)NC(=O)[C@H](CCCNC(=N)N)NC(=O)[C@H](Cc2c[nH]cn2)NC(=O)[C@H](CCC(=O)O)NC(=O)CNC(=O)[C@H](Cc2c[nH]c3ccccc23)NC(=O)[C@H](CCC(=O)O)NC(=O)[C@H](CCC(N)=O)NC(=O)[C@H](Cc2cn(C)c3ccccc23)NC1=O [Compound 124] (Ac-SEFCI[Trp(1-Me)]QEWGEHRC[Sar]EGE[AEEA][AEEA]K([γGlu-Gly-γGlu-C18 diacid])-NH2; disulfide 4-14),,,,,,< 100,112
"CC[C@H](C)[C@@H]1NC(=O)[C@@H](NC(=O)[C@H](Cc2ccccc2)NC(=O)[C@H](CCC(=O)O)NC(=O)[C@H](CO)NC(C)=O)CSCC[C@@H](C(=O)N(C)CC(=O)N[C@@H](CCC(=O)O)C(=O)NCC(=O)N[C@@H](CCC(=O)O)C(=O)NCCOCCOCC(=O)NCCOCCOCC(=O)N[C@@H](CCCCNC(=O)CC[C@H](NC(=O)CNC(=O)CC[C@H](NC(=O)CCCCCCCCCCCCCCCCC(=O)O)C(=O)O)C(=O)O)C(N)=O)NC(=O)[C@H](CCCNC(=N)N)NC(=O)[C@H](Cc2c[nH]cn2)NC(=O)[C@H](CCC(=O)O)NC(=O)CNC(=O)[C@H](Cc2c[nH]c3ccccc23)NC(=O)[C@H](CC(=O)O)NC(=O)[C@H](CCC(N)=O)NC(=O)[C@H](Cc2cn(C)c3ccccc23)NC1=O [Compound 146, Ac-SEFA(1)I[1-Me-Trp]QDWGEHRhC(1)[Sar]EGE[Peg3][Peg3]-K([17-carboxy-heptadecanoyl][γGlu]G[γGlu])-NH2] (Ac-SEFCI[Trp(1-Me)]QDWGEHR[Abu(4-yl)][Sar]EGE[AEEA][AEEA]K([γGlu-Gly-γGlu-C18 diacid])-NH2; thioether 4-14)",,,,,,< 100,117
CC[C@H](C)[C@@H]1NC(=O)[C@@H](NC(=O)[C@H](Cc2ccc(O)cc2)NC(=O)[C@H](CCC(=O)O)NC(=O)[C@H](CO)NC(C)=O)CSSC[C@@H](C(=O)N(C)CC(=O)N[C@@H](CCC(=O)O)C(=O)NCC(=O)N[C@@H](C)C(=O)N[C@@H](CCCCNC(=O)COCCOCCNC(=O)CC[C@H](NC(=O)COCCOCCNC(=O)CNC(=O)CC[C@H](NC(=O)CCCCCCCCCCCCCCCCC(=O)O)C(=O)O)C(=O)O)C(N)=O)NC(=O)[C@H](CCCNC(=N)N)NC(=O)[C@H](Cc2c[nH]cn2)NC(=O)[C@H](CCC(=O)O)NC(=O)CNC(=O)[C@H](Cc2c[nH]c3ccccc23)NC(=O)[C@H](CCC(=O)O)NC(=O)[C@H](CCC(N)=O)NC(=O)[C@H](Cc2cn(C)c3ccccc23)NC1=O [Compound 122] (Ac-SEYCI[Trp(1-Me)]QEWGEHRC[Sar]EGAK([AEEA-γGlu-AEEA-Gly-γGlu-C18 diacid])-NH2; disulfide 4-14),,,,,,< 500,127
CC[C@H](C)[C@@H]1NC(=O)[C@@H](NC(=O)[C@H](Cc2ccccc2)NC(=O)[C@H](CCC(=O)O)NC(=O)[C@H](CO)NC(C)=O)CSSC[C@@H](C(=O)N(C)CC(=O)N[C@@H](CCC(=O)O)C(=O)NCC(=O)N[C@@H](CCC(=O)O)C(=O)N[C@@H](CO)C(=O)N[C@@H](CCC(=O)O)C(=O)N[C@@H](CO)C(=O)N[C@@H](CCCCNC(=O)CC[C@H](NC(=O)CCCCCCCCCCCCCCCCC(=O)O)C(=O)O)C(N)=O)NC(=O)[C@H](CCCNC(=N)N)NC(=O)[C@H](Cc2c[nH]cn2)NC(=O)[C@H](CCC(=O)O)NC(=O)CNC(=O)[C@H](Cc2c[nH]c3ccccc23)NC(=O)[C@H](CC(=O)O)NC(=O)[C@H](CCC(N)=O)NC(=O)[C@H](Cc2cn(C)c3ccccc23)NC1=O [Compound 141] (Ac-SEFCI[Trp(1-Me)]QDWGEHRC[Sar]EGESESK([γGlu-C18 diacid])-NH2; disulfide 4-14),,,,,,< 100,145
CC[C@H](C)[C@@H]1NC(=O)[C@@H](NC(=O)[C@H](Cc2ccccc2)NC(=O)[C@H](CCC(=O)O)NC(=O)[C@H](CO)NC(C)=O)CSSC[C@@H](C(=O)N(C)CC(=O)N[C@@H](CCC(=O)O)C(=O)NCC(=O)N[C@@H](CCC(=O)O)C(=O)NCCOCCOCC(=O)N[C@@H](CCC(=O)O)C(=O)N[C@@H](CO)C(=O)N[C@@H](CCCCNC(=O)CC[C@H](NC(=O)CNC(=O)CC[C@H](NC(=O)CCCCCCCCCCCCCCCCC(=O)O)C(=O)O)C(=O)O)C(N)=O)NC(=O)[C@H](CCCNC(=N)N)NC(=O)[C@H](Cc2c[nH]cn2)NC(=O)[C@H](CCC(=O)O)NC(=O)CNC(=O)[C@H](Cc2c[nH]c3ccccc23)NC(=O)[C@H](CC(=O)O)NC(=O)[C@H](CCC(N)=O)NC(=O)[C@H](Cc2cn(C)c3ccccc23)NC1=O [Compound 140] (Ac-SEFCI[Trp(1-Me)]QDWGEHRC[Sar]EGE[AEEA]ESK([γGlu-Gly-γGlu-C18 diacid])-NH2; disulfide 4-14),,,,,,< 100,100
